As usually defined, the melting point is the temperature of the solid-liquid transition. `C=CCc1c(OC)c(=O)[nH]c2cc(Cl)ccc2c1=O`: the melting point is 135 to 136 °C.

As to `COc1ccc2[nH]c(SCc3cc(N4CCOCC4)c(F)cn3)nc2c1`, the melting point lay in the range of 142 to 144 °C.

As to `CCOC(=O)c1cn(C2CCCCC2)nc1O`, the melting point is 91 to 92 °C.

Turning to `CCC(C)c1ccc(-n2c(-c3cc(C)c(OCCO)c(C)c3)nc3cc(S(C)(=O)=O)ccc3c2=O)cc1` (centres undefined), the melting point lay within 235 to 237 °C.

As for `CC(C)(C)OC(=O)NC1CCCCCC=CC2CC2(C(=O)NS(=O)(=O)C2CC2)NC(=O)C2CC(OC(=O)c3ccc(Cl)cc3)CN2C1=O` (centres undefined), the melting point lay within 143 to 145 °C.

Compound `COc1cc(Cc2cnc(NCCO)nc2N)cc(OC)c1OC` had a melting point of 146 °C.

For `Cc1ccc2ccc(C(=O)NCc3ccc(Cl)cc3)c(O)c2n1`, the melting point lay within 95 to 98 °C.

In turn, `CCCCCCCCCCCCNc1ccc(OCC)cc1` gave a melting point of 38 to 39 °C.

In turn, `Cn1cc(CC#N)c2cc([N+](=O)[O-])ccc21` displayed a melting point of 165 to 166 °C.

As to `Cc1c2c3c(ccc2nn1C)CCC3=CC#N`, the melting point is 200 to 203 °C.

`COc1cnc(CO)c(C)c1OC` showed a melting point of 91 to 92 °C.

Consider `CNCCCOc1ccc(-c2ccc(C(=O)O)cc2)cc1-c1ccc2c(c1)C(C)(C)CCC2(C)C`, for which the melting point stood at 242 °C.

`NP(N)(=O)OCCCCl` showed a melting point of 111 to 112 °C.

In turn, `Cc1ccc(C(N)=S)cc1C` gave a melting point of 120 to 125 °C.

Compound `Cc1ccc(COc2ncc(F)c(N)n2)cc1` yielded a melting point of 111 to 112 °C.

In the case of `Fc1ccc(C(OP2OCCO2)(c2ccc(F)cc2)c2ccccc2F)cc1`, the melting point is 163 to 164 °C.

`COc1ccc2occ(CCN3CCN(c4cccc5cccnc45)CC3)c2c1` displayed a melting point of 78 °C.

The compound `COC(=O)c1ccc(-c2nnc(CSCCCCOc3ccccc3)o2)cc1` had a melting point of 98 to 105 °C.

In the case of `Cc1[nH]c(=O)c2c(N)c([N+](=O)[O-])ccc2c1C`, the melting point is more than 300 °C.

In turn, `OCC(O)COCc1nnc2n1-c1ccc(Cl)cc1C(c1ccccc1)=NC2` (centres undefined) showed a melting point of 130 to 134 °C.

The compound `Nc1nc(O)cc(NC2CC2)n1` displayed a melting point of 229 °C.

`C=C1C2=C(CCCC2)C(=O)N1c1ccc(Cl)cc1F` gave a melting point of 84 to 85.5 °C.

On to `COC(=O)c1ccc(COc2ccc(-c3cc(O)c(SCCc4ccccc4)c(=O)o3)cc2)cc1`, for which the melting point fell in the range of 157 to 158 °C.

With `Fc1ccccc1C1=NCc2n[nH]cc2-c2ccc(Cl)cc21`, the melting point fell in the range of 208 to 210 °C.

For the compound `O=C(OC1CCCC1)c1ncn2c1[C@@H]1CCN1C(=O)c1c(I)cccc1-2`, the melting point is 184 to 185 °C.

For `CCOC(=O)c1cn(C)c2c(OCC)csc2c1=O`, the melting point is 198 to 200 °C.

Compound `CCc1c(C(=O)C(N)=O)c2c(OCC(=O)OC)cc3c(c2n1Cc1ccccc1)CCCC3` came in with a melting point of 51 to 53 °C.

Compound `CSC[C@H](NCc1cc(Br)ccc1N)C(=O)O` yielded a melting point of 228 °C.

The compound `CNc1ccc([N+](=O)[O-])c(C(=O)NCC2CCN(C(c3ccccc3)c3ccccc3)CC2)c1` registered a melting point of 185 °C.

As to `CN1C(=O)C2CC(c3ccccc3)(C2)C1=O`, the melting point lay within 175 to 176 °C.

`COCC(=O)Nc1ccc(C2=NNC(=O)C3CC23)cc1` (centres undefined): the melting point worked out at 206 °C.

Consider `CCCC(Cc1ccc(OCCNC(=O)c2ccc(-c3ccccn3)cc2)cc1)C(=O)O` (centres undefined), for which the melting point is 81 to 82.5 °C.

In the case of `Cc1nc2c(N[C@@H]3c4ccccc4C[C@H]3O)cc(C(=O)O)cn2c1C` (relative stereo), the melting point lay in the range of 246 to 249 °C.

Regarding `Cc1ccccc1Nc1c(C(=O)C(C)C)cnc2c(CO)cccc12`, the melting point was in the range of 116 to 118 °C.

Take `CC(C)n1nc(-c2cc(N)cnc2-c2ccccc2)ccc1=O`: the melting point lay within 147 to 148 °C.

In the case of `O=C1Nc2ccccc2C12COc1cc3c(cc12)OCCCO3` (centres undefined), the melting point lay within 235 to 236 °C.

`COc1ccc(C(O)CNCc2cccc(OC)c2OC)cc1OC` (centres undefined) showed a melting point of 96 to 97 °C.

For the compound `N#Cc1ccccc1COc1cccc(Cl)c1`, the melting point was determined as 56 °C.

As to `O=c1[nH]c2cc(Cl)c(Cl)cc2n1CCCN1CCN(C(c2ccccc2)c2ccccc2)CC1`, the melting point amounted to 214 °C.

Turning to `C/C(=N\OCCCOc1ccc(C(=O)O)c(NC(=O)c2ccc(C(F)(F)F)cc2)c1)c1ccccc1`, the melting point fell in the range of 174 to 176 °C.

In the case of `O=C(CCCCCBr)c1cc2c3c(c1)CCC(=O)N3CCC2`, the melting point was 52 to 53 °C.

`Cc1ccc(C=NNc2ncnc3ccccc23)cc1` displayed a melting point of 211 to 214 °C.

`CC(C)(C)N1C(=O)c2nc(Cl)cc(N)c2C1=O` returned a melting point of 215 to 220 °C.

As to `N=C(N)Nc1nc(Cl)cc(Cl)n1`, the melting point was more than 360 °C.

As for `O=S(=O)(Nc1cccc(CCOCc2csc(-c3ccc(C(F)(F)F)cc3)n2)c1)C(F)(F)F`, the melting point lay within 117 to 119 °C.

Compound `CC(C)(C)OC(=O)NCc1cccc(C(=O)N[C@H]2C[C@H](C(=O)O)Nc3cc(Cl)cc(Cl)c32)c1` (relative stereo) returned a melting point of 192 to 193 °C.

The compound `Cn1c(CNCC2CCOCC2)cc2cc(NC(=O)c3ccc(OCC4CCOC4)cc3)ccc21` (centres undefined) showed a melting point of 153 to 154 °C.

`CCOC(=O)c1c(-c2ccccc2Cl)c2cc(C)cc(C)c2[nH]c1=O`: the melting point is 257 to 258 °C.

`O=C(Nc1cccc2c1C(=O)c1c-2n[nH]c1-c1ccc(N2CCNCC2)cc1)NN1CCC[C@@H]1CO` yielded a melting point of 190 °C.

As to `CCCC(=O)c1cnc2c(OC)cccc2c1Nc1ccc(OC(=O)CC)cc1C`, the melting point was 163 to 165 °C.

The compound `CCn1nc(C(C)(C)C)cc1C(=O)Nc1ccc(F)c(C(=O)N(C)C)c1` returned a melting point of 93 to 95 °C.

As for `Fc1ccc(COc2ncc(F)c(N=CN3CCCC3)n2)cc1`, the melting point was 102 to 103 °C.

Take `O=c1[nH]c2cc(C(F)(F)F)ccc2n1CCN1CCN(C(c2ccccc2)c2ccccc2)CC1`: the melting point came to 164 °C.

Regarding `COCc1ccc(C2(O)CCN(CC(O)c3cc(C)c(O)cc3C)CC2)cc1` (centres undefined), the melting point came out at 166 °C.

Compound `Cc1c(CN2CCc3c(c4cccc(F)c4n3C)C2=O)ncn1C(=O)OCc1ccccc1` gave a melting point of 126 to 128 °C.

The compound `CCOC(=O)NNC(=O)NC1c2ccccc2Oc2ccccc21` gave a melting point of 188 to 191 °C.

As to `Clc1ncnc2c1ncn2CCCN1CCC(COc2ccccc2)CC1`, the melting point lay within 95 to 96 °C.

Consider `FC(F)(F)Oc1cccc(Cn2cnc3c(-c4ccco4)ncnc32)c1`, for which the melting point lay in the range of 133 to 135 °C.

For the compound `COCOc1ccc(C(=O)OC)c(O)c1C`, the melting point lay within 73.8 to 74 °C.

On to `CC(=O)Nc1cc(/C=C/C(=O)NCC(=O)N(C)c2ccc(Cl)c(COc3cccc4ccc(C)nc34)c2Cl)ccn1`, for which the melting point was 115 to 131 °C.

The compound `COc1ccc(CN2CC(C(=O)O)CC2=O)cc1OC` (centres undefined) yielded a melting point of 176 to 178 °C.

`O=C(O)c1ccc2c(c1)C(=O)c1cc3c(cc1OC2)OCO3` registered a melting point of 320 to 321 °C.

`O=c1c(Cc2ccncc2)c(-c2ccc(Br)cc2)[nH]c2ccccc12` gave a melting point of 232 to 234 °C.

In the case of `O=Cc1ccc(N(c2ccccc2)c2ccccc2)c2ccccc12`, the melting point fell in the range of 107 to 110 °C.

Consider `OC(C1=NCCN1)(c1ccccc1)c1ccccn1` (centres undefined), for which the melting point lay within 152 to 154 °C.

In turn, `Nc1ccc(C=Cc2nc3ccccc3nc2C=Cc2ccc(N)cc2)cc1` returned a melting point of 227 to 228 °C.

As to `CC(=O)OC1CSC(Oc2cncc(-c3cnccc3C)c2)C(OC(C)=O)C1OC(C)=O` (centres undefined), the melting point stood at 165 °C.

Take `COc1ncc(OC)c(NN)n1`: the melting point is 115 to 117 °C.

Turning to `COc1cc(N2CCOCC2)ccc1Nc1nc(Nc2ccc3c(c2)CCCC(=O)N3C(C)C)ncc1Cl`, the melting point was 153 to 154 °C.

As for `Cc1ccc(S(=O)(=O)OCC2(CO)OC(n3ccc(=O)[nH]c3=O)C(O)C2O)cc1` (centres undefined), the melting point lay in the range of 119 to 120 °C.

The compound `COC(C)OC(=O)C1CC(=O)N(c2ccc(C(C)(C)C)cc2)C1` (centres undefined) registered a melting point of 60 to 61 °C.

Compound `O=C1CC2(CCNCC2)c2cc(Br)ccc2N1` had a melting point of 218 °C.

On to `Oc1ccc2oc3ccccc3c2c1Cn1c(=S)sc2ccccc21`, for which the melting point lay within 174 to 180 °C.

Compound `c1ccc2c(c1)[nH]c1c2ccc2cc[nH]c21` showed a melting point of 295 °C.

`COc1ccnc(CCc2nc3cc(-c4ccsc4)cnc3[nH]2)c1` had a melting point of 154 to 155 °C.

For the compound `CCOC(=O)N1CCC(Nc2nc3ccccc3[nH]2)CC1`, the melting point is 231 to 233 °C.

`CCCCc1nn(-c2cc([N+](=O)[O-])ccc2C(F)(F)F)c(=O)n1Cc1ccc(-c2ccccc2S(=O)(=O)NC(C)(C)C)cc1F` had a melting point of 145 to 146 °C.

In turn, `COC(=O)c1ccc(I)c(O)c1` registered a melting point of 153 °C.

Compound `COC(=O)c1ccccc1S(=O)(=O)NC(=O)Nc1nc(OC)cc(OC(F)(F)F)n1` displayed a melting point of 141 to 143 °C.

The compound `CCOc1cc(-c2nnc3c4ccccc4c(OCc4nc[nH]n4)nn23)no1` returned a melting point of 240 to 243 °C.

In the case of `CC(=O)OC1CSC(Oc2cncc(-c3ccco3)c2)C(OC(C)=O)C1OC(C)=O` (centres undefined), the melting point amounted to 184 °C.

`COc1ccc(Cl)cc1CC1CNC(=O)CN(S(=O)(=O)c2ccc(Cl)cc2)C1=O` (centres undefined) yielded a melting point of 110 to 112 °C.

`CCOCc1nc2c(Cl)nc3ccccc3c2n1Cc1cc(-c2ccc(F)cc2)no1` had a melting point of 189 to 190 °C.

With `CCOC(=O)C(Cc1cccc(OC)c1Oc1ccc([N+](=O)[O-])cc1)(NC(C)=O)C(=O)OCC`, the melting point was in the range of 189 to 190 °C.

For the compound `NC(=O)c1ccccc1NC(=O)c1ccc(Cl)cc1`, the melting point lay within 205 to 207 °C.

In the case of `c1cnc2cc3c(cc2n1)CCNCC3`, the melting point is 114 to 116 °C.

In the case of `CCOc1nn(-c2ccc(C(F)(F)F)cn2)cc1CCCOc1cc(OC)ccc1CCC(=O)O`, the melting point lay in the range of 115 to 116 °C.

As to `CC(C)C(C)(C#N)NC(=O)c1ccccc1C(=O)O` (centres undefined), the melting point fell in the range of 154 to 155 °C.

For the compound `CCP(=O)(OC)C(O)C(CC1CCCCC1)NC(=O)[C@H](CC(C)C)NC(=O)CCc1ccccc1` (some centres undefined), the melting point is 170 to 175 °C.

The values above are taken from a melting point compilation (Tetko et al.; mined from patent text by program, amines drawn as free bases though some values may be those of a salt).
